The values that follow come from the supplement of paper PMC10949913.

Holding throughout (details): 48 h
In experiment [1] the test system is NCI-H295R. The experiment is described as follows: AC50 viability; higher = less potent. An outline of the steps:
(§1)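 Three adrenocortical carcinoma cell lines in 1,536-well plates received 23 nL of each library compound at 11 concentrations and were read with CellTiter-Glo after 48 h, with 15 minutes at room temperature before measuring luminescence. Vehicle and empty-well controls served for per-plate normalisation. AC50 and area under the curve were extracted from fitted concentration-response curves, discarding all curve classes other than inhibitory or non-responding.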

Experiment [2] concerns CU-ACC2. Description: area under concentration-response curve (viability) (AUC (a.u.)); higher = less active. An outline of the steps: as §1
Experiment [3] deals with NCI-H295R. The description is as above. An outline of the steps: as §1
Experiment [4] relates to CU-ACC1. The description is as above. An outline of the steps: as §1

As for `CON(C)C(=O)N1/N=C(S[C@@]1(CCCN)C2=CC=CC=C2)/C3=CC(=CC=C3F)F`, the AC50 viability in experiment [1] was 2.09 µM. Further, the “area under concentration-response curve” value in experiment [2] worked out at 517; in experiment [3], 348.

The compound `COC(=O)Nc1ccc(-c2nc(N3CCOCC3)c3cnn(C4CCN(Cc5cccnc5)CC4)c3n2)cc1` yielded an AC50 viability in experiment [1] of 16.6 µM. The “area under concentration-response curve” value in experiment [2] amounted to 546; in experiment [3], 444; in experiment [4] it was 499.

Turning to `Cc1[nH]c2ccccc2c1CCNCc1ccc(/C=C/C(=O)NO)cc1`, the AC50 viability in experiment [1] is 4.17 µM. Besides, the “area under concentration-response curve” value in experiment [2] stood at 403; in experiment [3], 376; in experiment [4] it was 378.

`COc1cc([C@@H]2c3cc4c(cc3[C@H](O)[C@H]3COC(=O)[C@H]23)OCO4)cc(OC)c1OC` registered an AC50 viability in experiment [1] of 0.0209 µM. Besides, the “area under concentration-response curve” value in experiment [2] was 464; in experiment [3], 359; in experiment [4], 452.

In the case of `COc1ccc(N(C)c2nc(C)nc3ccccc23)cc1`, the AC50 viability in experiment [1] is 0.00934 µM. Moreover, the “area under concentration-response curve” value in experiment [2] worked out at 410; in experiment [3] it was 401; in experiment [4], 491.

Regarding `C/C=C(\C)C(=O)N[C@@H](c1ccccc1)[C@@H](O)C(=O)O[C@H]1C[C@@]2(O)[C@@H](OC(=O)c3ccccc3)[C@@H]3[C@]4(OC(C)=O)CO[C@@H]4C[C@H](O)[C@@]3(C)C(=O)[C@H](OC(C)=O)C(=C1C)C2(C)C`, in experiment [1], the AC50 viability amounted to 0.833 µM. In addition, the “area under concentration-response curve” value in experiment [2] was 515; in experiment [3], 418; in experiment [4], 447.

Compound `CCCCN(CCCC)CCC(O)c1cc2c(Cl)cc(Cl)cc2c2cc(C(F)(F)F)ccc12.Cl` (centres undefined) registered an AC50 viability in experiment [1] of 23.5 µM. Further, the results for the “area under concentration-response curve” value in experiment [2], in experiment [3] and in experiment [4] were 615, 548 and 538, respectively.

Regarding `C/C(=C\c1csc(C)n1)[C@@H]1C[C@@H]2O[C@]2(C)CCC[C@H](C)[C@H](O)[C@@H](C)C(=O)C(C)(C)[C@@H](O)CC(=O)N1`, the AC50 viability in experiment [1] turned out to be 2.09 µM. The results for the “area under concentration-response curve” value in experiment [2], in experiment [3] and in experiment [4] were 485, 460 and 478, respectively.

In experiment [1], `CC[C@H](C)[C@@H]([C@@H](CC(=O)N1CCC[C@H]1[C@H](OC)[C@@H](C)C(=O)N[C@@H](Cc1ccccc1)c1nccs1)OC)N(C)C(=O)[C@@H](NC(=O)[C@H](C(C)C)N(C)C)C(C)C` registered an AC50 viability of 33.2 µM. For the same compound, the “area under concentration-response curve” value in experiment [2] amounted to 363; in experiment [3] it was 344.

Turning to `CCC1=C[C@@H]2CN(C1)Cc1c([nH]c3ccccc13)[C@@](C(=O)OC)(c1cc3c(cc1OC)N(C)[C@H]1[C@@](O)(C(=O)OC)[C@H](OC(C)=O)[C@]4(CC)C=CCN5CC[C@]31[C@@H]54)C2`, the AC50 viability in experiment [1] is 4.56 µM. Further, the “area under concentration-response curve” value in experiment [2] worked out at 573; in experiment [3], 473; in experiment [4], 507.

Compound `Nc1ncnc2c1ncn2[C@@H]1O[C@H](CO)C[C@H]1O` registered an AC50 viability in experiment [1] of 20.9 µM. In addition, the “area under concentration-response curve” value was determined as 612 in experiment [2], 528 in experiment [3] and 550 in experiment [4].

For the compound `Oc1ccc(Nc2nc(-c3ccc(Cl)cc3)cs2)cc1`, the AC50 viability in experiment [1] came out at 16.6 µM. Also, the “area under concentration-response curve” value was 496 in experiment [2], 474 in experiment [3] and 403 in experiment [4].

In experiment [1], `CN1CCN([C@H]2CC[C@H](n3cc(-c4ccc(Oc5ccccc5)cc4)c4c(N)ncnc43)CC2)CC1` registered an AC50 viability of 9.34 µM. The results for the “area under concentration-response curve” value in experiment [2], in experiment [3] and in experiment [4] were 517, 481 and 488, respectively.

With `CCOc1ccc(Nc2nc(-c3c(C)nc4ccccn34)cs2)cc1`, the AC50 viability in experiment [1] was 2.95 µM. The “area under concentration-response curve” value in experiment [2] came out at 497; in experiment [3], 487; in experiment [4] it was 493.

`NC(=O)Nc1cc(-c2ccc(CN3CCOCC3)cc2)sc1C(N)=O` gave an AC50 viability in experiment [1] of 6.61 µM. Further, the results for the “area under concentration-response curve” value in experiment [2], in experiment [3] and in experiment [4] were 597, 519 and 540, respectively.

`C[N]1N=CC2=C1C=C(C(=C2)OC3=CC=C(NC(=O)\C4=C\C=C(\C)N(C4=O)C5=CC=C(F)C=C5)C=C3F)C6=C[NH]N=C6`: the AC50 viability in experiment [1] came out at 7.42 µM. Further, the “area under concentration-response curve” value in experiment [2] turned out to be 626; in experiment [3], 539; in experiment [4] it was 508.

For `CCN1CCN(CC1)CC(=O)NC2=CC=C(C3=C2C4=C(S3)C=CC=C4)C5=C6O\C(=C/C(=O)C6=CC=C5)N7CCOCC7`, in experiment [1], the AC50 viability amounted to 2.57 µM. The results for the “area under concentration-response curve” value in experiment [2], in experiment [3] and in experiment [4] were 610, 494 and 555, respectively.

In turn, `Nc1nc2ccc(OC(F)(F)F)cc2s1` gave an AC50 viability in experiment [1] of 0.00372 µM. Moreover, the “area under concentration-response curve” value worked out at 431 in experiment [2], 503 in experiment [3] and 493 in experiment [4].

In experiment [1], `C[C@@]1(C(=O)Nc2ccc(F)nc2)CCCN1c1nc(Nc2cc(C3CC3)[nH]n2)c2cccn2n1` returned an AC50 viability of 0.148 µM. In addition, the “area under concentration-response curve” value in experiment [2] is 480; in experiment [3] it was 375; in experiment [4] it was 505.

Regarding `CCC[C@H](N[C@H]1CCc2cc(F)cc(F)c2C1)C(=O)Nc1cn(C(C)(C)CNCC(C)(C)C)cn1`, the AC50 viability in experiment [1] is 23.5 µM. Also, the “area under concentration-response curve” value in experiment [2] amounted to 584; in experiment [3] it was 455; in experiment [4], 522.

In the case of `C[C@H]1Oc2cc(cnc2N)-c2c(nn(C)c2C#N)CN(C)C(=O)c2ccc(F)cc21`, the AC50 viability in experiment [1] worked out at 23.5 µM. Moreover, the “area under concentration-response curve” value amounted to 557 in experiment [2], 505 in experiment [3] and 529 in experiment [4].

Regarding `C[C@]12CC[C@@H]3c4ccc(O)cc4CC[C@H]3[C@@H]1CC[C@@H]2O`, in experiment [1], the AC50 viability is 11.8 µM. Also, the results for the “area under concentration-response curve” value in experiment [2], in experiment [3] and in experiment [4] were 478, 471 and 437, respectively.

Turning to `Cc1cc(Nc2nc(N[C@@H](C)c3ncc(F)cn3)ncc2Cl)n[nH]1`, the AC50 viability in experiment [1] worked out at 14.8 µM. The “area under concentration-response curve” value is 544 in experiment [2], 488 in experiment [3] and 472 in experiment [4].

In turn, `CCNCC[S+]([O-])(=O)NC[C@]1(S\C(=N/N1C(=O)C(C)(C)C)NC(=O)C(C)(C)C)C2=CC=CC=C2` returned an AC50 viability in experiment [1] of 0.209 µM. Further, the figures for the “area under concentration-response curve” value in experiment [2], in experiment [3] and in experiment [4] were 544, 415 and 452, respectively.

Regarding `CCN(CC)CCNC(=O)c1c(C)[nH]c(/C=C2\C(=O)Nc3ccc(F)cc32)c1C`, in experiment [1], the AC50 viability turned out to be 9.34 µM. Also, the “area under concentration-response curve” value in experiment [2] came out at 529; in experiment [3], 456; in experiment [4] it was 528.

In turn, `NC/1=N/C2=C([NH]C=N2)C(=S)N1` had an AC50 viability in experiment [1] of 10.5 µM. Moreover, the figures for the “area under concentration-response curve” value in experiment [2], in experiment [3] and in experiment [4] were 609, 533 and 511, respectively.

As to `C/C(=C\c1csc(C)n1)[C@@H]1C[C@@H]2O[C@]2(C)CCC[C@H](C)[C@H](O)[C@@H](C)C(=O)C(C)(C)[C@@H](O)CC(=O)O1`, in experiment [1], the AC50 viability is 0.0118 µM. For the same compound, the figures for the “area under concentration-response curve” value in experiment [2], in experiment [3] and in experiment [4] were 548, 346 and 467, respectively.

As to `COc1c(C)c2c(c(O)c1C/C=C(\C)CCC(=O)O)C(=O)OC2`, the AC50 viability in experiment [1] was determined as 0.59 µM. In addition, the “area under concentration-response curve” value in experiment [2] is 561; in experiment [3] it was 482; in experiment [4], 467.

In experiment [1], `COc1ncc(-c2ccc3nccc(-c4ccnnc4)c3c2)cc1N[S+](=O)([O-])c1ccc(F)cc1F` yielded an AC50 viability of 0.059 µM. For the same compound, the “area under concentration-response curve” value in experiment [2] was 441; in experiment [3], 362; in experiment [4], 362.
